PMC9463526 (Journal of Pharmaceutical Analysis, 2022)
Read-outs that look alike come from different tables or passages of the source.

Key:
[1] = Analyte stability in human plasma; format: physicochemical; conditions: for Freeze-thaw stability, Accuracy / Freeze-thaw stability, Mean concentration / Freeze-thaw stability, Difference: 3 cycles; for Freeze-thaw stability, Difference / Benchtop stability, Difference / Processed sample stability, Difference / Autosampler stability (5 °C), Difference / Long-term stability (−20 °C), Difference: vs freshly processed QC; for Benchtop stability, Accuracy / Benchtop stability, Mean concentration / Benchtop stability, Difference: 19 h; for Processed sample stability, Accuracy / Processed sample stability, Mean concentration / Processed sample stability, Difference: 23 h; for Autosampler stability (5 °C), Accuracy / Autosampler stability (5 °C), Mean concentration / Autosampler stability (5 °C), Difference: 112 h; for Long-term stability (−20 °C), Accuracy / Long-term stability (−20 °C), Mean concentration / Long-term stability (−20 °C), Difference: 27 days
Description: (§1) The stability of the analytes was studied under various storage and processing conditions. […] Short- and long-term stability studies of all analytes were conducted in human blank plasma and brain homogenate under several storage conditions. Analyte stability in biological matrices was analyzed using freshly prepared calibration standards and QC samples. The percentage difference between the stability and freshly processed QC was also assessed. Re-injection reproducibility was evaluated within the sample stability period in the autosampler. Analytes were considered stable if the accuracy at each level was ±15.0% of the nominal value. Additionally, the difference from corresponding comparison QC samples must be within ±15.0%.

[2] = Equilibrium dialysis, fraction unbound in brain homogenate; format: in vitro ADME, human; conditions: pH 7.4; human brain homogenate spiked at 20 and 200 nM; 16 h equilibrium dialysis; read-out: Fraction unbound (fu), Brain
Description: (§2) Equilibrium dialysis was employed to measure the fraction unbound of analytes in plasma, brain, and brain tumor tissue homogenates using 96-well DispoEquilibrium Dialyzer plates with a 10 kDa cut-off regenerated cellulose membrane. Dialysis was performed using 180 μL of human plasma or tissue homogenate against an equal volume of PBS (pH 7.4) in a dual-plate rotator (Harvard Apparatus, Holliston, MA, USA). Equilibrium time was initially optimized by analyzing samples after 2, 4, 6, 8, 16, and 24 h of dialysis at concentrations of 20 and 200 nM in human plasma and brain homogenate. The dialysates were collected and processed as described in Sections 2.3.2 and 2.3.3. The recovery of analytes was calculated as the ratio of analyte concentration after dialysis (sum of concentrations found in PBS and matrix fractions) to the total concentration to ensure the reliability and reproducibility of the assay. The experiments were repeated at least three times, and each sample in triplicate and average fraction unbound values were determined.
(§3) The fraction unbound in plasma (fu, plasma) and tissue homogenate (fu, hom) was evaluated as the analyte concentration ratio of post-dialysis PBS (cu) to post-dialysis plasma (cp, Eq. (1)) or homogenate (chom, Eq. (2)).(1) fu,plasma =cu/cp (2) fu,hom =cu/chom
The fraction unbound in the actual tissue (fu, tissue) was obtained by incorporating the unbound fraction in the tissue homogenate (fu, hom) and the dilution factor (Df) into Eq. (3).(3) fu,tissue = fu,hom/[Df - (Df - 1)fu,hom]

[3] = Analyte stability in brain homogenate; format: physicochemical, human; conditions: for Freeze-thaw stability, Accuracy / Freeze-thaw stability, Mean concentration / Freeze-thaw stability, Difference: 3 cycles; for Freeze-thaw stability, Difference / Benchtop stability, Difference / Processed sample stability, Difference / Autosampler stability (5 °C), Difference / Long-term stability (−20 °C), Difference: vs freshly processed QC; for Benchtop stability, Accuracy / Benchtop stability, Mean concentration / Benchtop stability, Difference: 6 h; for Processed sample stability, Accuracy / Processed sample stability, Mean concentration / Processed sample stability, Difference: 22 h; for Autosampler stability (5 °C), Accuracy / Autosampler stability (5 °C), Mean concentration / Autosampler stability (5 °C), Difference: 96 h; for Long-term stability (−20 °C), Accuracy / Long-term stability (−20 °C), Mean concentration / Long-term stability (−20 °C), Difference: 39 days
Description: as §1

[4] = Equilibrium dialysis, fraction unbound in plasma; format: in vitro ADME, human; conditions: pH 7.4, 16 h equilibrium dialysis
Description: as §2, §3
Unbound drug levels in the actual plasma and brain tumor tissue were measured using dialysis for 16 h to reach equilibrium. The mean of fraction unbound values determined in five patient samples was calculated.

[5] = Levels in intraoperatively collected CSF of GBM patients; format: in vivo; conditions: human, po, five GBM patients, oral LY3214996 200 mg once daily and abemaciclib 150 mg twice daily for 5 days, intraoperative CSF
Description: Blank brain and clinical brain tumor tissue homogenates were prepared at 1:9 (m/V) ratio with PBS. The samples were homogenized at a speed of 6.00 m/s for 40 s for three cycles using a Bead Ruptor Elite homogenizer (Omni International, Kennesaw, GA, USA). Plasma was used as a surrogate matrix when preparing calibration curves for brain and brain tumor homogenates and CSF as well as for the PBS fraction after sample dialysis. To minimize matrix differences, all plasma samples were spiked with PBS, while all non-plasma samples were spiked with plasma. Extraction of the analyte and IS was facilitated by protein precipitation using methanol-containing IS precipitation solution. Samples (70 μL) spiked with PBS or plasma were precipitated using 400 μL of IS precipitation solution. After centrifugation at 12,000 r/min for 10 min at 4 °C, the supernatant was transferred for LC-MS/MS analysis.
The validated bioanalytical method was employed to investigate analytes pharmacokinetics in the plasma, brain tumor, and CSF in GBM patients (ClinicalTrials.gov identifier: NCT04391595). The protocol was reviewed and approved by the Institutional Review Board of the Barrow Neurological Institute, St. Joseph's Hospital and Medical Center (Phoenix, AZ, USA). All patients enrolled in the trial provided written informed consent. […] Blood, CSF, and GBM tissue (including gadolinium-contrast enhancing and non-enhancing regions) samples were obtained intra-operatively from each patient on the […] on the planned operation day. Blood was centrifuged at 4 °C and 3,000 r/min for 10 min; plasma was subsequently collected. Brain tumors were resected 7–9 h after the last dose was administered. Once resected, the tissue samples were rinsed with PBS, paper dried, and freshly frozen in liquid nitrogen. The samples were then stored at −80 °C in a freezer for later analysis.

Structure (SMILES): CCN1CCN(Cc2ccc(Nc3ncc(F)c(-c4cc(F)c5nc(CO)n(C(C)C)c5c4)n3)nc2)CC1 [M20]
- Freeze-thaw stability, Accuracy ([1]; HQC 400.0 nM): 99.6%
- Freeze-thaw stability, Mean concentration ([1]; HQC 400.0 nM): 398.6 nM
- Freeze-thaw stability, Difference ([1]; HQC 400.0 nM): 0.3%
- Freeze-thaw stability, Accuracy ([1]; LQC 0.6 nM): 97.2%
- Freeze-thaw stability, Mean concentration ([1]; LQC 0.6 nM): 0.583 nM
- Freeze-thaw stability, Difference ([1]; LQC 0.6 nM): 2.9%
- Benchtop stability, Accuracy ([1]; HQC 400.0 nM): 102.2%
- Benchtop stability, Mean concentration ([1]; HQC 400.0 nM): 408.9 nM
- Benchtop stability, Difference ([1]; HQC 400.0 nM): 2.8%
- Benchtop stability, Accuracy ([1]; LQC 0.6 nM): 99.9%
- Benchtop stability, Mean concentration ([1]; LQC 0.6 nM): 0.599 nM
- Benchtop stability, Difference ([1]; LQC 0.6 nM): 3.5%
- Processed sample stability, Accuracy ([1]; HQC 400.0 nM): 101.4%
- Processed sample stability, Mean concentration ([1]; HQC 400.0 nM): 405.7 nM
- Processed sample stability, Difference ([1]; HQC 400.0 nM): 2.7%
- Processed sample stability, Accuracy ([1]; LQC 0.6 nM): 88.9%
- Processed sample stability, Mean concentration ([1]; LQC 0.6 nM): 0.534 nM
- Processed sample stability, Difference ([1]; LQC 0.6 nM): −2%
- Autosampler stability (5 °C), Accuracy ([1]; HQC 400.0 nM): 95.6%
- Autosampler stability (5 °C), Mean concentration ([1]; HQC 400.0 nM): 382.5 nM
- Autosampler stability (5 °C), Difference ([1]; HQC 400.0 nM): −2%
- Autosampler stability (5 °C), Accuracy ([1]; LQC 0.6 nM): 95.1%
- Autosampler stability (5 °C), Mean concentration ([1]; LQC 0.6 nM): 0.57 nM
- Autosampler stability (5 °C), Difference ([1]; LQC 0.6 nM): 1.3%
- Long-term stability (−20 °C), Accuracy ([1]; HQC 400.0 nM): 104.7%
- Long-term stability (−20 °C), Mean concentration ([1]; HQC 400.0 nM): 418.8 nM
- Long-term stability (−20 °C), Difference ([1]; HQC 400.0 nM): 2.7%
- Long-term stability (−20 °C), Accuracy ([1]; LQC 0.6 nM): 101.7%
- Long-term stability (−20 °C), Mean concentration ([1]; LQC 0.6 nM): 0.61 nM
- Long-term stability (−20 °C), Difference ([1]; LQC 0.6 nM): −4%
- fraction unbound at 16 h [2]: 0.021
- Freeze-thaw stability, Accuracy ([3]; HQC 400.0 nM): 108.7%
- Freeze-thaw stability, Mean concentration ([3]; HQC 400.0 nM): 434.9 nM
- Freeze-thaw stability, Difference ([3]; HQC 400.0 nM): 1.4%
- Freeze-thaw stability, Accuracy ([3]; LQC 0.6 nM): 108.5%
- Freeze-thaw stability, Mean concentration ([3]; LQC 0.6 nM): 0.651 nM
- Freeze-thaw stability, Difference ([3]; LQC 0.6 nM): −1.5%
- Benchtop stability, Accuracy ([3]; HQC 400.0 nM): 93.7%
- Benchtop stability, Mean concentration ([3]; HQC 400.0 nM): 375.0 nM
- Benchtop stability, Difference ([3]; HQC 400.0 nM): −4.4%
- Benchtop stability, Accuracy ([3]; LQC 0.6 nM): 100.0%
- Benchtop stability, Mean concentration ([3]; LQC 0.6 nM): 0.6 nM
- Benchtop stability, Difference ([3]; LQC 0.6 nM): 2.3%
- Processed sample stability, Accuracy ([3]; HQC 400.0 nM): 97.8%
- Processed sample stability, Mean concentration ([3]; HQC 400.0 nM): 391.1 nM
- Processed sample stability, Difference ([3]; HQC 400.0 nM): −0.2%
- Processed sample stability, Accuracy ([3]; LQC 0.6 nM): 100.5%
- Processed sample stability, Mean concentration ([3]; LQC 0.6 nM): 0.603 nM
- Processed sample stability, Difference ([3]; LQC 0.6 nM): 2.7%
- Autosampler stability (5 °C), Accuracy ([3]; HQC 400.0 nM): 100.3%
- Autosampler stability (5 °C), Mean concentration ([3]; HQC 400.0 nM): 401.3 nM
- Autosampler stability (5 °C), Difference ([3]; HQC 400.0 nM): 2.7%
- Autosampler stability (5 °C), Accuracy ([3]; LQC 0.6 nM): 101.9%
- Autosampler stability (5 °C), Mean concentration ([3]; LQC 0.6 nM): 0.612 nM
- Autosampler stability (5 °C), Difference ([3]; LQC 0.6 nM): 10.3%
- Long-term stability (−20 °C), Accuracy ([3]; HQC 400.0 nM): 112.0%
- Long-term stability (−20 °C), Mean concentration ([3]; HQC 400.0 nM): 448.1 nM
- Long-term stability (−20 °C), Difference ([3]; HQC 400.0 nM): 4.5%
- Long-term stability (−20 °C), Accuracy ([3]; LQC 0.6 nM): 105.9%
- Long-term stability (−20 °C), Mean concentration ([3]; LQC 0.6 nM): 0.635 nM
- Long-term stability (−20 °C), Difference ([3]; LQC 0.6 nM): −3.9%
- fraction unbound at 16 h ([4]; human, plasma of five GBM patients, read-out: Fraction unbound (fu), Plasma (patients)): 0.023
- fraction unbound at 16 h ([4]; pooled human plasma spiked at 20 and 200 nM, read-out: Fraction unbound (fu), Plasma (pooled)): 0.024
- concentration at 6 day (intra-operative) ([5]; read-out: Level in CSF (range)): 3.1 to 58.1 nM
- concentration at 6 day (intra-operative) ([5]; read-out: Median level in CSF): 12.7 nM
